Experimental data reported in US11040035B2, “3-oxo-2,6-diphenyl-2,3-dihydropyridazine-4-carboxamides” (BAYER PHARMA AKTIENGESELLSCHAFT, priority 2016, dated 2021).

What was measured:
AHR [1] = target: T1, AHR (Homo sapiens, UniProt P35869); experiment: In vitro assay 2: agonism in human cell line (transactivation assay)
T1 sequence (P35869 11-848): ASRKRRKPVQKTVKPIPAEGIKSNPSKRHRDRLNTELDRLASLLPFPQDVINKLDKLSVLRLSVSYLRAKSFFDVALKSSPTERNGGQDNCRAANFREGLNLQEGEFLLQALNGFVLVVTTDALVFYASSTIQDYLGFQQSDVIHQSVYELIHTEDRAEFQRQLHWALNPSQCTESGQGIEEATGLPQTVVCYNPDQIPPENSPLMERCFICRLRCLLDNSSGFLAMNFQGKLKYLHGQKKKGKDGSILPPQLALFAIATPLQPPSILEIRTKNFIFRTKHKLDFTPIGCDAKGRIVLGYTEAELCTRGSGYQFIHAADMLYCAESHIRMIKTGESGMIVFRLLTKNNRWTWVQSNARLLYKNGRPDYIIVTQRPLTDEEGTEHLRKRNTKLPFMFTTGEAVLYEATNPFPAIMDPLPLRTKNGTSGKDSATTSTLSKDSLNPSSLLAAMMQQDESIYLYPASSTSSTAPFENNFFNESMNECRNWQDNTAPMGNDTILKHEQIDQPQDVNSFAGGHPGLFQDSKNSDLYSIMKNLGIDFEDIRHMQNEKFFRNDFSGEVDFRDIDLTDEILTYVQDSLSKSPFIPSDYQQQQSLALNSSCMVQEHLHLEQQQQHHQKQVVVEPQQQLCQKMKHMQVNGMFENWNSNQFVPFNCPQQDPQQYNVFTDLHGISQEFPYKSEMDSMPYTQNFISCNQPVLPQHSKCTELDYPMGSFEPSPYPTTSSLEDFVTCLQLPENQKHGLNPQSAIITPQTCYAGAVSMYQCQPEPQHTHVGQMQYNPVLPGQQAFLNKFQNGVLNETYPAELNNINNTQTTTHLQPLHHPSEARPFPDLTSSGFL

AHR [2] = target: T1, AHR; experiment: In vitro assay 1: antagonism in human cell line (transactivation assay, kynurenic acid prestimulated); conditions: Assay 1: AHR-luc Hum Antagonism IC50 [M], 150 μM kynurenic acid, 20 hours, firefly luciferase
[3] = Assay 2: AHR-luc Hum Agonism IC50 [M], no kynurenic acid, 20 hours, firefly luciferase
[4] = read-out: Assay 2: AHR-luc Hum Agonism IC50, no kynurenic acid, 20 hours, firefly luciferase

O=C(NCC(O)C(F)(F)F)c1cc(-c2ccc(C(F)(F)F)cc2)nn(-c2cccc(F)c2)c1=O (single isomer, unassigned; (-)) [Example 243]
IC50 (AHR [1]; [3]): > 2e-05 M | IC50 (AHR [2]): 3.13e-08 M

COCCC(CO)NC(=O)c1cc(-c2ccc(C(F)(F)F)cc2)nn(-c2cccc(F)c2)c1=O (single isomer, unassigned; (-)) [Example 313, (−)-2-(3-fluorophenyl)-N-(1-hydroxy-4-methoxybutan-2-yl)-3-oxo-6-[4-(trifluoromethyl)-phenyl]-2,3-dihydropyridazine-4-carboxamide]
IC50 (AHR [1]; [3]): > 2e-05 M | IC50 (AHR [2]): 1.67e-08 M

O=C(NC(CCO)C(F)(F)F)c1cc(-c2ccc(Cl)cc2)nn(-c2cccc(F)c2)c1=O (single isomer, unassigned; (-)) [Example 342, (−)-6-(4-chlorophenyl)-2-(3-fluorophenyl)-3-oxo-N-(1,1,1-trifluoro-4-hydroxybutan-2-yl)-2,3-dihydropyridazine-4-carboxamide]
IC50 (AHR [1]; [3]): > 2e-05 M | IC50 (AHR [2]): 4.46e-07 M

O=C(NC(CO)C1CC1)c1cc(-c2ccc(C(F)(F)F)cc2)nn(-c2cccc(F)c2)c1=O (single isomer, unassigned; (-)) [Example 351, (−)-N-(1-cyclopropyl-2-hydroxyethyl)-2-(3-fluorophenyl)-3-oxo-6-[4-(trifluoromethyl)phenyl]-2,3-dihydropyridazine-4-carboxamide]
IC50 (AHR [1]; [3]): > 2e-05 M | IC50 (AHR [2]): 4.84e-09 M

Cc1ccc(-c2cc(C(=O)NCC(O)C(F)(F)F)c(=O)n(-c3cccc(F)c3)n2)cc1 (single isomer, unassigned; enantiomer 1) [Example 5, 2-(3-Fluorophenyl)-6-(4-methylphenyl)-3-oxo-N-(3,3,3-trifluoro-2-hydroxypropyl)-2,3-dihydropyridazine-4-carboxamide, enantiomer 1]
IC50 (AHR [1]; [3]): > 2e-05 M | IC50 (AHR [2]): 1.65e-08 M

Cc1ccc(-c2cc(C(=O)NCC(C)O)c(=O)n(-c3cccc(F)c3)n2)cc1 (single isomer, unassigned; enantiomer 1) [Example 14, 2-(3-Fluorophenyl)-N-(2-hydroxypropyl)-6-(4-methylphenyl)-3-oxo-2,3-dihydropyridazine-4-carboxamide, Enantiomer 1]
IC50 (AHR [1]; [3]): > 2e-05 M | IC50 (AHR [2]): 1.75e-07 M

COCC(O)CNC(=O)c1cc(-c2ccc(C)cc2)nn(-c2cccc(F)c2)c1=O (single isomer, unassigned; enantiomer 1) [Example 17, 2-(3-Fluorophenyl)-N-(2-hydroxy-3-methoxypropyl)-6-(4-methylphenyl)-3-oxo-2,3-dihydropyridazine-4-carboxamide, Enantiomer 1]
IC50 (AHR [1]; [3]): > 2e-05 M | IC50 (AHR [2]): 2.11e-07 M

Cc1ccc(-c2cc(C(=O)NCC(O)C(F)(F)F)c(=O)n(-c3cccc(F)c3)n2)cc1 (single isomer, unassigned; enantiomer 2) [Example 6, 2-(3-Fluorophenyl)-6-(4-methylphenyl)-3-oxo-N-(3,3,3-trifluoro-2-hydroxypropyl)-2,3-dihydropyridazine-4-carboxamide, enantiomer 2]
IC50 (AHR [1]; [4]): > 2e-05 M | IC50 (AHR [2]): 6.58e-08 M

Cc1ccc(-c2cc(C(=O)NCC(O)C(C)C)c(=O)n(-c3cccc(F)c3)n2)cc1 (single isomer, unassigned; enantiomer 2) [Example 12, 2-(3-Fluorophenyl)-N-(2-hydroxy-3-methylbutyl)-6-(4-methylphenyl)-3-oxo-2,3-dihydropyridazine-4-carboxamide, enantiomer 2]
IC50 (AHR [1]; [4]): > 2e-05 M | IC50 (AHR [2]): 1.22e-07 M

Cc1ccc(-c2cc(C(=O)NCC(C)O)c(=O)n(-c3cccc(F)c3)n2)cc1 (single isomer, unassigned; enantiomer 2) [Example 15, 2-(3-Fluorophenyl)-N-(2-hydroxypropyl)-6-(4-methylphenyl)-3-oxo-2,3-dihydropyridazine-4-carboxamide, Enantiomer 2]
IC50 (AHR [1]; [4]): > 2e-05 M | IC50 (AHR [2]): 2.62e-07 M

COCC(O)CNC(=O)c1cc(-c2ccc(C)cc2)nn(-c2cccc(F)c2)c1=O (single isomer, unassigned; enantiomer 2) [Example 18, 2-(3-Fluorophenyl)-N-(2-hydroxy-3-methoxypropyl)-6-(4-methylphenyl)-3-oxo-2,3-dihydropyridazine-4-carboxamide, Enantiomer 2]
IC50 (AHR [1]; [4]): > 2e-05 M | IC50 (AHR [2]): 3.39e-07 M

Cc1ccc(-c2cc(C(=O)NCC(O)C(F)(F)F)c(=O)n(-c3cccc(F)c3)n2)cc1 (stereo not drawn) [Example 4, 2-(3-Fluorophenyl)-6-(4-methylphenyl)-3-oxo-N-(3,3,3-trifluoro-2-hydroxypropyl)-2,3-dihydropyridazine-4-carboxamide]
IC50 (AHR [1]; [3]): > 2e-05 M | IC50 (AHR [2]): 2.92e-08 M

Cc1ccc(-c2cc(C(=O)N[C@@H](C)CO)c(=O)n(-c3cccc(F)c3)n2)cc1 [Example 8, 2-(3-Fluorophenyl)-N-[(2S)-1-hydroxypropan-2-yl]-6-(4-methylphenyl)-3-oxo-2,3-dihydropyridazine-4-carboxamide]
IC50 (AHR [1]; [3]): > 2e-05 M | IC50 (AHR [2]): 3.61e-08 M

Cc1ccc(-c2cc(C(=O)NCC(O)C(C)C)c(=O)n(-c3cccc(F)c3)n2)cc1 (stereo not drawn) [Example 10, 2-(3-Fluorophenyl)-N-(2-hydroxy-3-methylbutyl)-6-(4-methylphenyl)-3-oxo-2,3-dihydropyridazine-4-carboxamide]
IC50 (AHR [1]; [3]): > 2e-05 M | IC50 (AHR [2]): 1.2e-07 M

Cc1ccc(-c2cc(C(=O)NCC(C)O)c(=O)n(-c3cccc(F)c3)n2)cc1 (stereo not drawn) [Example 13, 2-(3-Fluorophenyl)-N-(2-hydroxypropyl)-6-(4-methylphenyl)-3-oxo-2,3-dihydropyridazine-4-carboxamide]
IC50 (AHR [1]; [3]): > 2e-05 M | IC50 (AHR [2]): 1.43e-07 M

COCC(O)CNC(=O)c1cc(-c2ccc(C)cc2)nn(-c2cccc(F)c2)c1=O (stereo not drawn) [Example 16, 2-(3-Fluorophenyl)-N-(2-hydroxy-3-methoxypropyl)-6-(4-methylphenyl)-3-oxo-2,3-dihydropyridazine-4-carboxamide]
IC50 (AHR [1]; [3]): > 2e-05 M | IC50 (AHR [2]): 1.74e-07 M

C[C@H](CO)NC(=O)c1cc(-c2ccc(Cl)cc2)nn(-c2cccc(F)c2)c1=O [Example 24, 6-(4-Chlorophenyl)-2-(3-fluorophenyl)-N-[(2R)-1-hydroxypropan-2-yl]-3-oxo-2,3-dihydropyridazine-4-carboxamide]
IC50 (AHR [1]; [3]): > 2e-05 M | IC50 (AHR [2]): 3.02e-07 M

CC(C)C(O)CNC(=O)c1cc(-c2ccc(Cl)cc2)nn(-c2cccc(F)c2)c1=O (stereo not drawn) [Example 28, 6-(4-Chlorophenyl)-2-(3-fluorophenyl)-N-(2-hydroxy-3-methylbutyl)-3-oxo-2,3-dihydropyridazine-4-carboxamide]
IC50 (AHR [1]; [3]): > 2e-05 M | IC50 (AHR [2]): 8.85e-08 M

COCC(O)CNC(=O)c1cc(-c2ccc(Cl)cc2)nn(-c2cccc(F)c2)c1=O (stereo not drawn) [Example 31, 6-(4-Chlorophenyl)-2-(3-fluorophenyl)-N-(2-hydroxy-3-methoxypropyl)-3-oxo-2,3-dihydropyridazine-4-carboxamide]
IC50 (AHR [1]; [3]): > 2e-05 M | IC50 (AHR [2]): 1.61e-07 M

CC(O)CNC(=O)c1cc(-c2ccc(Cl)cc2)nn(-c2cccc(F)c2)c1=O (stereo not drawn) [Example 34, 6-(4-Chlorophenyl)-2-(3-fluorophenyl)-N-(2-hydroxypropyl)-3-oxo-2,3-dihydropyridazine-4-carboxamide]
IC50 (AHR [1]; [3]): > 2e-05 M | IC50 (AHR [2]): 1.88e-07 M

C[C@@H](O)CNC(=O)c1cc(-c2ccc(Cl)cc2)nn(-c2cccc(F)c2)c1=O [Example 35, 6-(4-Chlorophenyl)-2-(3-fluorophenyl)-N-[(2R)-2-hydroxypropyl]-3-oxo-2,3-dihydropyridazine-4-carboxamide]
IC50 (AHR [1]; [3]): > 2e-05 M | IC50 (AHR [2]): 1.92e-07 M

C[C@H](O)CNC(=O)c1cc(-c2ccc(Cl)cc2)nn(-c2cccc(F)c2)c1=O [Example 36, 6-(4-Chlorophenyl)-2-(3-fluorophenyl)-N-[(2S)-2-hydroxypropyl]-3-oxo-2,3-dihydropyridazine-4-carboxamide]
IC50 (AHR [1]; [3]): > 2e-05 M | IC50 (AHR [2]): 2.95e-07 M

O=C(NC(CO)C1CCOC1)c1cc(-c2ccc(Cl)cc2)nn(-c2cccc(F)c2)c1=O (stereo not drawn) [Example 38, 6-(4-Chlorophenyl)-2-(3-fluorophenyl)-N-[2-hydroxy-1-(tetrahydrofuran-3-yl)ethyl]-3-oxo-2,3-dihydropyridazine-4-carboxamide]
IC50 (AHR [1]; [3]): > 2e-05 M | IC50 (AHR [2]): 3.87e-08 M

O=C(NCC(O)C(F)(F)F)c1cc(-c2ccc(Cl)cc2)nn(-c2cc(F)cc(F)c2)c1=O (stereo not drawn) [Example 44, 6-(4-Chlorophenyl)-2-(3,5-difluorophenyl)-3-oxo-N-(3,3,3-trifluoro-2-hydroxypropyl)-2,3-dihydropyridazine-4-carboxamide]
IC50 (AHR [1]; [3]): > 2e-05 M | IC50 (AHR [2]): 1.99e-08 M
